From patent US20240217947A1, “Morpholinylquinazoline Compound, Pharmaceutical compositions thereof and Use Thereof” (SHANGHAI YINGLI PHARMACEUTICAL CO., LTD, priority 2022, published 2024)

Target: PI3Kγ (Homo sapiens, UniProt P48736)
Assay: PI3Kγ enzyme activity inhibition IC50 evaluation assay (ADP-Glo Kinase Assay)
Assay type: biochemical
Settings: ATP 25 μM, PIP2 50 μg/mL, 1 hour room temperature, read-out: PI3K-γ IC50
Procedure: Effec Example 1 IC50 evaluation assay for PI3Kα, PI3Kδ, PI3Kβ and PI3Kγ enzyme activity inhibition
The experiment was performed using the ADP-Glo Kinase Assay kit, following the instructions. The following buffer solutions were prepared: 50 mM HEPES, pH 7.5, 3 mM MgCl2, 1 mM EGTA, 100 mM NaCl, 0.03% CHAPS, 2 mM DTT. The test compound samples were dissolved in DMSO and added to the screening system at a certain starting concentration such as 10 μM, 3-fold dilution, while setting up both DMSO control and no kinase control. The optimal concentrations of PI3Kα, PI3Kδ, PI3Kβ and PI3Kγ enzymes, substrate (PIP2) and ATP were prepared in buffer. The enzyme reaction system included: buffer, ATP 25 μM, kinase substrate (PIP2, 50 μg/mL), kinases [PI3Kα (0.15 μg/mL), PI3Kδ (1.2 μg/mL), PI3Kβ (0.3 μg/mL) and PI3Kγ (2.5 μg/mL)], etc. The reaction system was reacted at room temperature for 1 hour. The reaction was terminated by adding a termination reagent (ADP-Glo reagent, 5 μL), and the ADP content in the system was detected using a detection reagent (Kinase Detection Reagent, 10 μL). Signal data were collected using the Envision instrument. Calculate the percentage of (%) inhibition according to the following formula: % inhibition=(DMSO control signal value−sample signal value)/(DMSO control signal value−no-kinase control signal value). The IC50 value was obtained by fitting the curve using the formula Y=Bottom+(Top-Bottom)/(1+(IC50/X)^HillSlope).

Sequence of PI3Kγ (P48736 whole entry, species assumed): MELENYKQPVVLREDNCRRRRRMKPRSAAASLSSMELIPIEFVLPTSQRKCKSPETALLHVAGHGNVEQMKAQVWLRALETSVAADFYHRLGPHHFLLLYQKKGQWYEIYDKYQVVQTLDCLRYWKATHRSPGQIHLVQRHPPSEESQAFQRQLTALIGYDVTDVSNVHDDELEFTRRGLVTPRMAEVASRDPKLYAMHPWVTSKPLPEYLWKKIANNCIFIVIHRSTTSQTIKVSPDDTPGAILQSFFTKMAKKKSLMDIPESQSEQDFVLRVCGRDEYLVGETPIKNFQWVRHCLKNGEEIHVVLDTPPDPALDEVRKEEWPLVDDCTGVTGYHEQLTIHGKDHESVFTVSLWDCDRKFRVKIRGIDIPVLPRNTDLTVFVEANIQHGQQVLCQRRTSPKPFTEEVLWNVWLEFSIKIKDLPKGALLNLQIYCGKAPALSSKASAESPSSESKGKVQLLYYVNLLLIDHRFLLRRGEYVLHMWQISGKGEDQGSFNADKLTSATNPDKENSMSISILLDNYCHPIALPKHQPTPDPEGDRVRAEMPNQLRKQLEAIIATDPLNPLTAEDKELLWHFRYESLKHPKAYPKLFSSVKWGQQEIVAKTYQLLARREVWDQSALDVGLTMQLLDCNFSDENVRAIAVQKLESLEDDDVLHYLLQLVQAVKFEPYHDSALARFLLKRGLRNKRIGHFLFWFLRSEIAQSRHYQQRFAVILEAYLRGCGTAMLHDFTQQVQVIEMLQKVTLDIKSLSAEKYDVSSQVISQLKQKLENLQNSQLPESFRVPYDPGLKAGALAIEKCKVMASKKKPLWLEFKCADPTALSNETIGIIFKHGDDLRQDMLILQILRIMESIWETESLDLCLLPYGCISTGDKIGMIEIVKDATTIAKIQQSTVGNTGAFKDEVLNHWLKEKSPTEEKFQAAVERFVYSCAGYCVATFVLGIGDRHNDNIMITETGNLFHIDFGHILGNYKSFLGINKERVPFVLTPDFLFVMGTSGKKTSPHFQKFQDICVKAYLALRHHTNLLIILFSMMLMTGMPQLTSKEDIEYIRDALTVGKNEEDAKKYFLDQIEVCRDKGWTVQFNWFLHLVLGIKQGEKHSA

| Structure (SMILES) | IC50 |
| --- | --- |
| COc1ncc(-c2nc(N3CCOCC3)nc3c(CN4CCN(c5ncc(C(=O)NO)cn5)CC4)cc(F)cc23)cc1NS(C)(=O)=O [Compound 7] | 1 to 10 µM |
| COc1ncc(-c2nc(N3CCOCC3)nc3c(OC4CCN(c5ncc(C(=O)NO)cc5F)CC4)cc(F)cc23)cc1NS(C)(=O)=O [Compound 30] | 1 to 10 µM |
